What all share (assay type): in vivo
What all share (settings): wettable powder applied 3 days after transplanting, judged after 25 days

For data set [1], the system named is annual broad-leaved weeds (Lindernia spp., Rotala indica). Briefly: Test Example 1: herbicidal effects, paddy-field pot test. The method in brief:
(§1)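 Paddy soil pots sown with dormancy-broken weed seeds mixed into the top 1 cm, plus germinated Cyperus serotinus tubers and transplanted 2.2-leaf rice seedlings, grown flooded in a greenhouse. Water-diluted wettable powder applied 3 days after transplanting; growth inhibition scored 25 days later on a 0–5 scale (0 = 0–10%, 5 = 91–100%).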

Data set [2] has as its system barnyardgrass (Echinochloa oryzicola Vasing.). The data set is described as above. Put shortly: as §1
The next data set concerns Scirpus joncoides. Described as above. Put shortly:
as §1

For the next data set, the system named is Cyperus serotinus. The data set is described as above. Put shortly:
as §1

Data set [3] relates to transplanted paddy-field rice. Briefly: Test Example 1: crop injury against transplanted paddy-field rice. Put shortly: as §1

Regarding `Cc1cc(C)c(Oc2nnc(Cl)cc2O)c(C)c1` [Example 317], the “Herbicidal effects Broad leaf” value in data set [1] (chemical dosage 12.5 g/a) was 4 (Growth inhibition rate; 71 to 90%); in data set [1] (chemical dosage 25 g/a), 5 (Growth inhibition rate; 91 to 100%). For the same molecule, the “Herbicidal effects Barnyard grass” value in data set [2] (chemical dosage 12.5 g/a) and in data set [2] (chemical dosage 25 g/a) was 0 (Growth inhibition rate; 0 to 10%) throughout. The “Herbicidal effects Scirpus joncoides” value was 2 (Growth inhibition rate; 31 to 50%) in the data set with Scirpus joncoides (chemical dosage 12.5 g/a) and 3 (Growth inhibition rate; 51 to 70%) in the data set on Scirpus joncoides (chemical dosage 25 g/a). Moreover, the “Herbicidal effects Cyperus serotinus” value in the data set with Cyperus serotinus (chemical dosage 12.5 g/a) and with Cyperus serotinus (chemical dosage 25 g/a) was 5 (Growth inhibition rate; 91 to 100%) in each case. Moreover, the “Crop injury against transplanted rice” value in data set [3] (chemical dosage 12.5 g/a) is listed as 0 (Growth inhibition rate; 0 to 10%); in data set [3] (chemical dosage 25 g/a) it was 1 (Growth inhibition rate; 11 to 30%).

As to `Cc1cc(C)c(Oc2nnc(Cl)cc2O)c(C2CC2)c1` [Example 318], the “Herbicidal effects Broad leaf” value in data set [1] (chemical dosage 10 g/a) and in data set [1] (chemical dosage 20 g/a) was 5 (Growth inhibition rate; 91 to 100%) throughout. The “Herbicidal effects Barnyard grass” value in data set [2] (chemical dosage 10 g/a) is reported as 0 (Growth inhibition rate; 0 to 10%); in data set [2] (chemical dosage 20 g/a), 1 (Growth inhibition rate; 11 to 30%). Further, the “Herbicidal effects Scirpus joncoides” value in the data set on Scirpus joncoides (chemical dosage 10 g/a) and in the data set with Scirpus joncoides (chemical dosage 20 g/a) was 5 (Growth inhibition rate; 91 to 100%) each time. Also, the “Herbicidal effects Cyperus serotinus” value in the data set with Cyperus serotinus (chemical dosage 10 g/a) and with Cyperus serotinus (chemical dosage 20 g/a) was 5 (Growth inhibition rate; 91 to 100%) in each case. The “Crop injury against transplanted rice” value in data set [3] (chemical dosage 10 g/a) and in data set [3] (chemical dosage 20 g/a) was 0 (Growth inhibition rate; 0 to 10%) each time.

In the case of `Cc1cc(C)c(Br)c(Oc2nnc(Cl)cc2O)c1C` [Example 319], the “Herbicidal effects Broad leaf” value in data set [1] (chemical dosage 10 g/a) and in data set [1] (chemical dosage 20 g/a) was 5 (Growth inhibition rate; 91 to 100%) throughout. In addition, the “Herbicidal effects Barnyard grass” value is on record as 2 (Growth inhibition rate; 31 to 50%) in data set [2] (chemical dosage 10 g/a) and 3 (Growth inhibition rate; 51 to 70%) in data set [2] (chemical dosage 20 g/a). Moreover, the “Herbicidal effects Scirpus joncoides” value in the data set on Scirpus joncoides (chemical dosage 10 g/a) and with Scirpus joncoides (chemical dosage 20 g/a) was 5 (Growth inhibition rate; 91 to 100%) each time. Moreover, the “Herbicidal effects Cyperus serotinus” value in the data set with Cyperus serotinus (chemical dosage 10 g/a) and in the data set on Cyperus serotinus (chemical dosage 20 g/a) was 5 (Growth inhibition rate; 91 to 100%) throughout. Also, the “Crop injury against transplanted rice” value in data set [3] (chemical dosage 10 g/a) and in data set [3] (chemical dosage 20 g/a) was 0 (Growth inhibition rate; 0 to 10%) throughout.

With `Cc1cc(C)c(C)c(Oc2nnc(Cl)cc2O)c1C` [Example 320], the “Herbicidal effects Broad leaf” value in data set [1] (chemical dosage 12.5 g/a) and in data set [1] (chemical dosage 25 g/a) was 5 (Growth inhibition rate; 91 to 100%) each time. For the same molecule, the “Herbicidal effects Barnyard grass” value is given as 1 (Growth inhibition rate; 11 to 30%) in data set [2] (chemical dosage 12.5 g/a) and 2 (Growth inhibition rate; 31 to 50%) in data set [2] (chemical dosage 25 g/a). For the same molecule, the “Herbicidal effects Scirpus joncoides” value in the data set on Scirpus joncoides (chemical dosage 12.5 g/a) and in the data set with Scirpus joncoides (chemical dosage 25 g/a) was 5 (Growth inhibition rate; 91 to 100%) throughout. The “Herbicidal effects Cyperus serotinus” value with Cyperus serotinus (chemical dosage 12.5 g/a) and in the data set with Cyperus serotinus (chemical dosage 25 g/a) was 5 (Growth inhibition rate; 91 to 100%) in each case. Besides, the “Crop injury against transplanted rice” value in data set [3] (chemical dosage 12.5 g/a) and in data set [3] (chemical dosage 25 g/a) was 0 (Growth inhibition rate; 0 to 10%) each time.

With `CC(=O)Oc1cc(Cl)nnc1Oc1ccccc1C1CC1` [Example 323], the “Herbicidal effects Broad leaf” value in data set [1] (chemical dosage 10 g/a) and in data set [1] (chemical dosage 20 g/a) was 5 (Growth inhibition rate; 91 to 100%) throughout. For the same molecule, the results for the “Herbicidal effects Barnyard grass” value in data set [2] (chemical dosage 10 g/a) and in data set [2] (chemical dosage 20 g/a) were 3 (Growth inhibition rate; 51 to 70%) and 4 (Growth inhibition rate; 71 to 90%), respectively. Further, the “Herbicidal effects Scirpus joncoides” value in the data set with Scirpus joncoides (chemical dosage 10 g/a) and in the data set on Scirpus joncoides (chemical dosage 20 g/a) was 5 (Growth inhibition rate; 91 to 100%) each time. Moreover, the “Herbicidal effects Cyperus serotinus” value with Cyperus serotinus (chemical dosage 10 g/a) and in the data set on Cyperus serotinus (chemical dosage 20 g/a) was 5 (Growth inhibition rate; 91 to 100%) each time. Also, the “Crop injury against transplanted rice” value in data set [3] (chemical dosage 10 g/a) and in data set [3] (chemical dosage 20 g/a) was 0 (Growth inhibition rate; 0 to 10%) each time.

In the case of `O=C(Oc1cc(Cl)nnc1Oc1ccccc1C1CC1)C1CC1` [Example 327], the “Herbicidal effects Broad leaf” value in data set [1] (chemical dosage 10 g/a) and in data set [1] (chemical dosage 20 g/a) was 5 (Growth inhibition rate; 91 to 100%) each time. Besides, the “Herbicidal effects Barnyard grass” value in data set [2] (chemical dosage 10 g/a) and in data set [2] (chemical dosage 20 g/a) was 4 (Growth inhibition rate; 71 to 90%) in each case. Besides, the “Herbicidal effects Scirpus joncoides” value in the data set on Scirpus joncoides (chemical dosage 10 g/a) and in the data set on Scirpus joncoides (chemical dosage 20 g/a) was 5 (Growth inhibition rate; 91 to 100%) throughout. Moreover, the “Herbicidal effects Cyperus serotinus” value in the data set on Cyperus serotinus (chemical dosage 10 g/a) and in the data set on Cyperus serotinus (chemical dosage 20 g/a) was 5 (Growth inhibition rate; 91 to 100%) throughout. Also, the “Crop injury against transplanted rice” value in data set [3] (chemical dosage 10 g/a) and in data set [3] (chemical dosage 20 g/a) was 0 (Growth inhibition rate; 0 to 10%) throughout.

In the case of `Cc1ccccc1Oc1nnc(Cl)cc1OC(=O)c1ccccc1` [Example 328], the “Herbicidal effects Broad leaf” value in data set [1] (chemical dosage 10 g/a) was 3 (Growth inhibition rate; 51 to 70%); in data set [1] (chemical dosage 20 g/a) it was 5 (Growth inhibition rate; 91 to 100%). Further, the “Herbicidal effects Barnyard grass” value in data set [2] (chemical dosage 10 g/a) is 3 (Growth inhibition rate; 51 to 70%); in data set [2] (chemical dosage 20 g/a), 4 (Growth inhibition rate; 71 to 90%). The “Herbicidal effects Scirpus joncoides” value in the data set with Scirpus joncoides (chemical dosage 10 g/a) is reported as 3 (Growth inhibition rate; 51 to 70%); in the data set on Scirpus joncoides (chemical dosage 20 g/a), 5 (Growth inhibition rate; 91 to 100%). The “Herbicidal effects Cyperus serotinus” value with Cyperus serotinus (chemical dosage 10 g/a) and in the data set with Cyperus serotinus (chemical dosage 20 g/a) was 5 (Growth inhibition rate; 91 to 100%) each time. The “Crop injury against transplanted rice” value in data set [3] (chemical dosage 10 g/a) and in data set [3] (chemical dosage 20 g/a) was 0 (Growth inhibition rate; 0 to 10%) in each case.

Turning to `O=C(Oc1cc(Cl)nnc1Oc1ccccc1C1CC1)c1ccccc1` [Example 329], the “Herbicidal effects Broad leaf” value in data set [1] (chemical dosage 10 g/a) and in data set [1] (chemical dosage 20 g/a) was 5 (Growth inhibition rate; 91 to 100%) in each case. In addition, the “Herbicidal effects Barnyard grass” value in data set [2] (chemical dosage 10 g/a) was 2 (Growth inhibition rate; 31 to 50%); in data set [2] (chemical dosage 20 g/a), 4 (Growth inhibition rate; 71 to 90%). For the same molecule, the “Herbicidal effects Scirpus joncoides” value in the data set on Scirpus joncoides (chemical dosage 10 g/a) and with Scirpus joncoides (chemical dosage 20 g/a) was 5 (Growth inhibition rate; 91 to 100%) each time. For the same molecule, the “Herbicidal effects Cyperus serotinus” value in the data set on Cyperus serotinus (chemical dosage 10 g/a) and in the data set on Cyperus serotinus (chemical dosage 20 g/a) was 5 (Growth inhibition rate; 91 to 100%) in each case. Besides, the “Crop injury against transplanted rice” value in data set [3] (chemical dosage 10 g/a) and in data set [3] (chemical dosage 20 g/a) was 0 (Growth inhibition rate; 0 to 10%) in each case.

For `COC(=O)Oc1cc(Cl)nnc1Oc1ccccc1C1CC1` [Example 345], the “Herbicidal effects Broad leaf” value in data set [1] (chemical dosage 10 g/a) and in data set [1] (chemical dosage 20 g/a) was 5 (Growth inhibition rate; 91 to 100%) each time. Moreover, the “Herbicidal effects Barnyard grass” value is 3 (Growth inhibition rate; 51 to 70%) in data set [2] (chemical dosage 10 g/a) and 4 (Growth inhibition rate; 71 to 90%) in data set [2] (chemical dosage 20 g/a). Moreover, the “Herbicidal effects Scirpus joncoides” value in the data set on Scirpus joncoides (chemical dosage 10 g/a) and with Scirpus joncoides (chemical dosage 20 g/a) was 5 (Growth inhibition rate; 91 to 100%) throughout. For the same molecule, the “Herbicidal effects Cyperus serotinus” value with Cyperus serotinus (chemical dosage 10 g/a) and in the data set with Cyperus serotinus (chemical dosage 20 g/a) was 5 (Growth inhibition rate; 91 to 100%) throughout. For the same molecule, the “Crop injury against transplanted rice” value in data set [3] (chemical dosage 10 g/a) and in data set [3] (chemical dosage 20 g/a) was 0 (Growth inhibition rate; 0 to 10%) throughout.

On to `CCOC(=O)Oc1cc(Cl)nnc1Oc1ccccc1C1CC1` [Example 347], for which the “Herbicidal effects Broad leaf” value in data set [1] (chemical dosage 10 g/a) and in data set [1] (chemical dosage 20 g/a) was 5 (Growth inhibition rate; 91 to 100%) in each case. Moreover, the figures for the “Herbicidal effects Barnyard grass” value in data set [2] (chemical dosage 10 g/a) and in data set [2] (chemical dosage 20 g/a) were 3 (Growth inhibition rate; 51 to 70%) and 4 (Growth inhibition rate; 71 to 90%), respectively. In addition, the “Herbicidal effects Scirpus joncoides” value with Scirpus joncoides (chemical dosage 10 g/a) and in the data set with Scirpus joncoides (chemical dosage 20 g/a) was 5 (Growth inhibition rate; 91 to 100%) throughout. Further, the “Herbicidal effects Cyperus serotinus” value in the data set on Cyperus serotinus (chemical dosage 10 g/a) and with Cyperus serotinus (chemical dosage 20 g/a) was 5 (Growth inhibition rate; 91 to 100%) in each case. The “Crop injury against transplanted rice” value in data set [3] (chemical dosage 10 g/a) and in data set [3] (chemical dosage 20 g/a) was 0 (Growth inhibition rate; 0 to 10%) in each case.

Source of the values: patent US7964531B2, “3-phenoxy-4-pyridazinol derivatives and herbicidal composition containing the same” (Mitsui Chemicals Agro, Inc., priority 2001, dated 2011).
